In patent US8598145B2, “Mitochondrially delivered anti-cancer compounds” (priority 2008, dated 2013):

Assays:
EAhy926 cells = assay: Angiogenesis in vitro: wound-healing and tube-forming (FIG. 7); format: cell-based, human
Experimental: Wound-healing (A-F) and tube-forming activity (G, H) were assessed using the EC EAhy926 cells. For wound-healing activity, the cells were seeded in 35-mm Petri dishes and allowed to reach 100% confluency. The ‘injury’ was then performed, resulting in a denuded gap of 0.4-0.5 mm. Wound-healing activity in control cells and cells supplemented with 1, 5 or 10 μM MitoVES was assessed on the basis of proliferation and migration of cells into the denuded zone using a light microscope equipped with a grid and a digital camera (A). […] In panel C, representative images of injured control cells and cells treated with 10 μM MitoVES at different times are presented. […] EAhy926 cells were seeded at ˜10^5 per well in Matrigel-coated 24-well plates and allowed for 24 h to form tubes at the absence or presence of MitoVES. Complete capillaries connecting points of individual polygons (see General Materials and Methods) were counted per the field of 0.16 mm^2 and took as a measure of the tube-forming activity (F). […] At 20 h of treatment, the cells were retrieved from the Matrigel and assessed for apoptosis using the Annexin V binding method (H). Parental EAhy926 cells and their ρ^0 counterparts were seeded in Petri dishes at confluency, ‘injured’ as described above, and the wound-healing activity assessed in the absence or presence of 10 μM MitoVES (MVES) (I; see symbols above panel L). The healing rate was estimated from the slopes in panel I and plotted in […] (J). At 20 h, the cells were assessed for the level of apoptosis (K). Panel L documents tube-forming activity in Matrigel of the ρ^0 EAhy 926 cells in the absence or presence of 5 μM MitoVES. […]
To assess the effect of α-TOS on the wound-healing activity of the EAhy926 cells, the cells were seeded in […] Petri dishes and allowed to reach complete confluence. […] Regrowth of cells (wound healing) in the presence of α-TOS or α-TEA was assessed by following the kinetics of narrowing the denuded gap in the microscope equipped with a grid in the eyepiece and healing expressed as the ‘rate of filling the gap’ as the rate of healing in μm/h. […]

[1] = pH 6.2 versus pH 7.4 of the medium; cited from earlier work

| SMILES | fold greater potency as antiangiogenic drug than α-TOS (EAhy926 cells; relative to α-TOS) | concentration needed for comparable levels of effects on endothelial cells (EAhy926 cells; same endothelial cell types) | angiogenesis in vitro (EAhy926 cells; wound-healing, tube-forming and apoptosis assays) | uptake of the compound at lower pH [1] |
| --- | --- | --- | --- | --- |
| Cc1c(C)c2c(c(C)c1OC(=O)CCC(=O)[O-])CCC(C)(CCCCCCCCCCC[P+](c1ccccc1)(c1ccccc1)c1ccccc1)O2 (stereo not shown) [MitoVE11S] | 5 fold | 5 to 10 µM | inhibits angiogenesis in vitro | – |
| Cc1c(C)c2c(c(C)c1OC(=O)CCC(=O)O)CC[C@@](C)(CCC[C@H](C)CCC[C@H](C)CCCC(C)C)O2 [α-TOS, α-tocopheryl succinate, reference compound] | – | – | – | about twice as much |
